Like-named read-outs stand apart in the source and are kept apart here.
Legend:
[1] = cited from earlier work
2′-deoxyguanosine (dG) [2] = experiment: 8OHdG produced from added dG, standing at room temperature or UV irradiation (Examples 1-7); settings: for 8OHdG concentration, 90 Minutes' UV irradiation: ultrapure water 0.529; for concentration at which oxidation injury activity due to UV light is elevated (harmfulness increased): Example 1, 90 minutes UV; for evaluation in words: oxidation induction or antioxidant ability toward dG: conclusions of Examples 2-7;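 for all read-outs here: Cell-free test: dG in test solution, held at room temperature or exposed to 254 nm UV, then 8OHdG quantified by HPLC with electrochemical detection, compared against dG in ultrapure water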
Description: Separately, the amount of 8OHdG after an ultrapure water solution of dG is left to stand under the same conditions as above for a predetermined time is measured (this value is defined as B). If A is greater than B, the test substance is evaluated to have oxidation induction ability and conversely if A is smaller than B, the test substance is evaluated to have antioxidant ability. In either case, it is judged that the greater the difference is, the greater degree of oxidation induction ability or antioxidant capability the test substance has.
Then, 20 μl of 200 μg/ml dG (dissolved in ultrapure water) was added to each well and one of the plates was left to stand as it was at room temperature for 90 minutes and the other plate was irradiated with UV light (254 nm, 860 μW/cm^2) for 90 minutes in a UV light irradiation box. […] Subsequently, nucleosides in the both were quantified by use of the UV light absorption analyzer connected to the HPLC and the electrochemical detector.
Solutions of predetermined concentrations of vitamin C (VC), vitamin E (VE), catechin (Cate) and tannic acid (Tan) were prepared and 180 μl portions were injected into each well of two 99-well plastic plates. Then, 20 μl of 200 μg/ml dG (dissolved in ultrapure water) was added to each well and one of the plates was left to stand as it was at room temperature for 90 minutes and the other plate was irradiated with UV light (254 nm, 860 μW/cm^2) for 90 minutes in a UV light irradiation box.
Then, 20 μl of 200 μg/ml dG (dissolved in ultrapure water) was added to each well and one of the plates was left to stand as it was at room temperature for 90 minutes and another plate was left to stand similarly at room temperature for 24 hours. The remaining three plates were irradiated with UV light (254 nm, 860 μW/cm^2) for 60 minutes, 90 minutes and 120 minutes, respectively, in a UV light irradiation box.
Solutions of predetermined concentrations of glucose (Glu), raffinose (Raffi) and sucrose (Suc) were prepared and 180 μl portions thereof were injected into each well of four 99-well plastic plates. Then, 20 μl of 200 μg/ml dG (dissolved in ultrapure water) was added to each well and one of the plates was left to stand as it was at room temperature for 90 minutes. The remaining three plates were irradiated with UV light (254 nm, 860 μW/cm^2) for 60 minutes, 90 minutes and 120 minutes, respectively, in a UV light irradiation box.
Then, 20 μl of 200 μg/ml dG (dissolved in ultrapure water) was added to each well and one of the plates was left to stand as it was at room temperature for 90 minutes and the other plate was irradiated with UV light (254 nm, 860 μW/cm^2) for 90 minutes in a UV light irradiation box.
Solutions of various concentrations of uric acid (dissolving fluid: distilled water+0.025% FBS) were prepared and 180 μl portions thereof were injected into each well of two 99-well plastic plates. Then, 20 μl of 200 μg/ml dG (dissolved in ultrapure water) was added to each well and one of the plates was left to stand as it was at room temperature for 90 minutes and the other plate was irradiated with UV light (254 nm, 860 μW/cm^2) for 90 minutes in a UV light irradiation box.

2′-deoxyguanosine (dG) [3] = experiment: 8OHdG produced from dG in presence of potassium bromate as active oxygen generator (Example 8); assay type: biochemical; settings: with KBrO3, ultrapure water 2.699
2′-deoxyguanosine (dG) [4] = settings: KBrO3 30 minutes; for dG: pure water ctrl 1.067; for 8OHdG/dG × 10^−3: pure water ctrl 3.542; for 8OHdG × 10^−3: pure water ctrl 3.779; for Relative initial magnification: pure water ctrl 13.47
2′-deoxyguanosine (dG) [5] = experiment: 8OHdG produced from dG with test substance and coexisting bisphenol A, standing or UV (Example 9); assay type: biochemical; settings: for 8OHdG concentration, 90 Minutes' standing: ultrapure water 0.21; for 8OHdG concentration, 90 Minutes' UV irradiation: ultrapure water 0.64
Description: 170 μl portions of ultrapure water and predetermined concentrations of vitamin C (VC), vitamin E (VE), and glucose (Glu) as test substance were added to each well of two […] plastic plates and, as additional solution, 20 μl of ultrapure water or predetermined concentration of bisphenol A (BPA) were injected into each well.

[6] = 0.005 ppm, Table 1, ultrapure water 0.267
[7] = 0.5 ppm, Table 1, ultrapure water 0.267
[8] = 5 ppm, Table 1, ultrapure water 0.267
[9] = BPA 0.5 ppm added to ultrapure water
[10] = BPA 5 ppm added to ultrapure water
[11] = BPA 50 ppm added to ultrapure water
[12] = 5%, Table 3, ultrapure water 0.382
[13] = 20%, Table 3, ultrapure water 0.382

Oc1c(Cl)c(Cl)c(Cl)c(Cl)c1Cl [PCP, pentachlorophenol]
safety concentration ([1]; reported): 5 mg/kg | 8OHdG concentration, 90 Minutes' standing (2′-deoxyguanosine (dG) [2]; 0.0005 ppm, Table 1, ultrapure water 0.267): 0.260 ng/mL | 8OHdG concentration, 90 Minutes' UV irradiation (2′-deoxyguanosine (dG) [2]; 0.0005 ppm, Table 1): 0.585 ng/mL | 8OHdG concentration, 90 Minutes' standing (2′-deoxyguanosine (dG) [2]; [6]): 0.236 ng/mL | 8OHdG concentration, 90 Minutes' UV irradiation (2′-deoxyguanosine (dG) [2]; 0.005 ppm, Table 1): 0.451 ng/mL | 8OHdG concentration, 90 Minutes' standing (2′-deoxyguanosine (dG) [2]; 0.05 ppm, Table 1, ultrapure water 0.267): 0.285 ng/mL | 8OHdG concentration, 90 Minutes' UV irradiation (2′-deoxyguanosine (dG) [2]; 0.05 ppm, Table 1): 0.431 ng/mL | 8OHdG concentration, 90 Minutes' standing (2′-deoxyguanosine (dG) [2]; [7]): 0.282 ng/mL | 8OHdG concentration, 90 Minutes' UV irradiation (2′-deoxyguanosine (dG) [2]; 0.5 ppm, Table 1): 0.396 ng/mL | 8OHdG concentration, 90 Minutes' standing (2′-deoxyguanosine (dG) [2]; [8]): 0.340 ng/mL | 8OHdG concentration, 90 Minutes' UV irradiation (2′-deoxyguanosine (dG) [2]; 5 ppm, Table 1): 5.730 ng/mL | concentration at which oxidation injury activity due to UV light is elevated (harmfulness increased) (2′-deoxyguanosine (dG) [2]): 5 ppm

OCC(O)CO [Gly, glycerol]
8OHdG concentration, 30 Minutes' standing (2′-deoxyguanosine (dG) [3]; 10%): 1.123 ng/mL | dG (2′-deoxyguanosine (dG) [4]; 10%): 1.044 VS | 8OHdG/dG × 10^−3 (2′-deoxyguanosine (dG) [4]; 10%): 1.506 × 10^−3 | 8OHdG × 10^−3 (2′-deoxyguanosine (dG) [4]; 10%): 1.572 mVs

O=C([O-])CN(CCN(CC(=O)[O-])CC(=O)[O-])CC(=O)[O-].[Na+].[Na+].[Na+].[Na+] [EDTA, sodium ethylenediaminetetraacetate]
8OHdG concentration, 30 Minutes' standing (2′-deoxyguanosine (dG) [3]; 1 mM): 0.784 ng/mL | dG (2′-deoxyguanosine (dG) [4]; 1 mM): 0.997 VS | 8OHdG/dG × 10^−3 (2′-deoxyguanosine (dG) [4]; 1 mM): 1.101 × 10^−3 | 8OHdG × 10^−3 (2′-deoxyguanosine (dG) [4]; 1 mM): 1.098 mVs | Relative initial magnification (2′-deoxyguanosine (dG) [4]; 1 mM): 4.19 times

CC(C)(c1ccc(O)cc1)c1ccc(O)cc1 [BPA, bisphenol A]
Acceptable uptake amount ([1]; common in every country): 0.05 mg/kg/day | 8OHdG concentration, 90 Minutes' standing (2′-deoxyguanosine (dG) [5]; [9]): 0.19 ng/mL | 8OHdG concentration, 90 Minutes' UV irradiation (2′-deoxyguanosine (dG) [5]; [9]): 2.09 ng/mL | 8OHdG concentration, 90 Minutes' standing (2′-deoxyguanosine (dG) [5]; [10]): 0.31 ng/mL | 8OHdG concentration, 90 Minutes' UV irradiation (2′-deoxyguanosine (dG) [5]; [10]): 6.19 ng/mL | 8OHdG concentration, 90 Minutes' standing (2′-deoxyguanosine (dG) [5]; [11]): 0.22 ng/mL | 8OHdG concentration, 90 Minutes' UV irradiation (2′-deoxyguanosine (dG) [5]; [11]): 11.58 ng/mL | effect on 8OHdG with BPA and UV light irradiation (2′-deoxyguanosine (dG) [5]; Example 9): increases depending on concentration | 8OHdG concentration, 90 Minutes' UV irradiation (2′-deoxyguanosine (dG) [2]; 0.0005 ppm, Table 1): 0.689 ng/mL | 8OHdG concentration, 90 Minutes' standing (2′-deoxyguanosine (dG) [2]; [6]): 0.315 ng/mL | 8OHdG concentration, 90 Minutes' UV irradiation (2′-deoxyguanosine (dG) [2]; 0.005 ppm, Table 1): 0.794 ng/mL | 8OHdG concentration, 90 Minutes' UV irradiation (2′-deoxyguanosine (dG) [2]; 0.05 ppm, Table 1): 0.614 ng/mL | 8OHdG concentration, 90 Minutes' standing (2′-deoxyguanosine (dG) [2]; [7]): 0.231 ng/mL | 8OHdG concentration, 90 Minutes' UV irradiation (2′-deoxyguanosine (dG) [2]; 0.5 ppm, Table 1): 1.736 ng/mL | 8OHdG concentration, 90 Minutes' standing (2′-deoxyguanosine (dG) [2]; [8]): 0.192 ng/mL | 8OHdG concentration, 90 Minutes' UV irradiation (2′-deoxyguanosine (dG) [2]; 5 ppm, Table 1): 7.142 ng/mL | concentration at which oxidation injury activity due to UV light is elevated (harmfulness increased) (2′-deoxyguanosine (dG) [2]): ≥ 0.5 ppm

CO [Meth, methanol]
8OHdG concentration, UV irradiation 60 minutes (2′-deoxyguanosine (dG) [2]; 5%, Table 3, ultrapure water 0.231): 0.181 ng/mL | 8OHdG concentration, Standing 24 hours (2′-deoxyguanosine (dG) [2]; [12]): 0.336 ng/mL | 8OHdG concentration, UV irradiation 90 minutes (2′-deoxyguanosine (dG) [2]; [12]): 0.209 ng/mL | 8OHdG concentration, UV irradiation 120 minutes (2′-deoxyguanosine (dG) [2]; 5%, Table 3, ultrapure water 0.645): 0.332 ng/mL | 8OHdG concentration, UV irradiation 60 minutes (2′-deoxyguanosine (dG) [2]; 20%, Table 3, ultrapure water 0.231): 0.324 ng/mL | 8OHdG concentration, Standing 24 hours (2′-deoxyguanosine (dG) [2]; [13]): 0.274 ng/mL | 8OHdG concentration, UV irradiation 90 minutes (2′-deoxyguanosine (dG) [2]; [13]): 0.395 ng/mL | 8OHdG concentration, UV irradiation 120 minutes (2′-deoxyguanosine (dG) [2]; 20%, Table 3, ultrapure water 0.645): 0.518 ng/mL | evaluation in words: oxidation induction or antioxidant ability toward dG (2′-deoxyguanosine (dG) [2]): potent antioxidant ability | 8OHdG concentration, 30 Minutes' standing (2′-deoxyguanosine (dG) [3]; 1%): 2.059 ng/mL | 8OHdG concentration, 30 Minutes' standing (2′-deoxyguanosine (dG) [3]; 2.5%): 1.685 ng/mL | dG (2′-deoxyguanosine (dG) [4]; 1%): 1.04 VS | 8OHdG/dG × 10^−3 (2′-deoxyguanosine (dG) [4]; 1%): 2.771 × 10^−3 | dG (2′-deoxyguanosine (dG) [4]; 5%): 1.054 VS | 8OHdG/dG × 10^−3 (2′-deoxyguanosine (dG) [4]; 5%): 2.238 × 10^−3 | 8OHdG × 10^−3 (2′-deoxyguanosine (dG) [4]; 5%): 2.359 mVs

OC[C@H]1O[C@H](OC[C@H]2O[C@H](O[C@]3(CO)O[C@H](CO)[C@@H](O)[C@@H]3O)[C@H](O)[C@@H](O)[C@@H]2O)[C@H](O)[C@@H](O)[C@H]1O [Raffi, raffinose]
8OHdG concentration, 90 Minutes' standing (2′-deoxyguanosine (dG) [2]; 0.1 μg/ml, Table 4, ultrapure water 0.195): 0.205 ng/mL | 8OHdG concentration, UV irradiation 60 minutes (2′-deoxyguanosine (dG) [2]; 0.1 μg/ml, Table 4, ultrapure water 0.392): 0.375 ng/mL | 8OHdG concentration, UV irradiation 90 minutes (2′-deoxyguanosine (dG) [2]; 0.1 μg/ml, Table 4, ultrapure water 0.901): 0.689 ng/mL | 8OHdG concentration, UV irradiation 120 minutes (2′-deoxyguanosine (dG) [2]; 0.1 μg/ml, Table 4, ultrapure water 1.183): 1.127 ng/mL | 8OHdG concentration, 90 Minutes' standing (2′-deoxyguanosine (dG) [2]; 1 μg/ml, Table 4, ultrapure water 0.195): 0.185 ng/mL | 8OHdG concentration, UV irradiation 60 minutes (2′-deoxyguanosine (dG) [2]; 1 μg/ml, Table 4, ultrapure water 0.392): 0.304 ng/mL | 8OHdG concentration, UV irradiation 90 minutes (2′-deoxyguanosine (dG) [2]; 1 μg/ml, Table 4, ultrapure water 0.901): 0.854 ng/mL | 8OHdG concentration, UV irradiation 120 minutes (2′-deoxyguanosine (dG) [2]; 1 μg/ml, Table 4, ultrapure water 1.183): 1.049 ng/mL | 8OHdG concentration, 90 Minutes' standing (2′-deoxyguanosine (dG) [2]; 10 μg/ml, Table 4, ultrapure water 0.195): 0.405 ng/mL | 8OHdG concentration, UV irradiation 60 minutes (2′-deoxyguanosine (dG) [2]; 10 μg/ml, Table 4, ultrapure water 0.392): 0.281 ng/mL | 8OHdG concentration, UV irradiation 90 minutes (2′-deoxyguanosine (dG) [2]; 10 μg/ml, Table 4, ultrapure water 0.901): 0.626 ng/mL | 8OHdG concentration, UV irradiation 120 minutes (2′-deoxyguanosine (dG) [2]; 10 μg/ml, Table 4, ultrapure water 1.183): 1.314 ng/mL | 8OHdG concentration, 90 Minutes' standing (2′-deoxyguanosine (dG) [2]; 100 μg/ml, Table 4, ultrapure water 0.195): 0.455 ng/mL | 8OHdG concentration, UV irradiation 60 minutes (2′-deoxyguanosine (dG) [2]; 100 μg/ml, Table 4, ultrapure water 0.392): 0.158 ng/mL | 8OHdG concentration, UV irradiation 90 minutes (2′-deoxyguanosine (dG) [2]; 100 μg/ml, Table 4, ultrapure water 0.901): 0.370 ng/mL | 8OHdG concentration, UV irradiation 120 minutes (2′-deoxyguanosine (dG) [2]; 100 μg/ml, Table 4, ultrapure water 1.183): 0.503 ng/mL | 8OHdG concentration, 90 Minutes' standing (2′-deoxyguanosine (dG) [2]; 1 mg/ml, Table 4, ultrapure water 0.195): 0.340 ng/mL | 8OHdG concentration, UV irradiation 60 minutes (2′-deoxyguanosine (dG) [2]; 1 mg/ml, Table 4, ultrapure water 0.392): 0.115 ng/mL | 8OHdG concentration, UV irradiation 90 minutes (2′-deoxyguanosine (dG) [2]; 1 mg/ml, Table 4, ultrapure water 0.901): 0.176 ng/mL | 8OHdG concentration, UV irradiation 120 minutes (2′-deoxyguanosine (dG) [2]; 1 mg/ml, Table 4, ultrapure water 1.183): 0.240 ng/mL | concentration at which antioxidant ability is effective (2′-deoxyguanosine (dG) [2]; Example 4): ≥ 10 µg/mL | evaluation in words: oxidation induction or antioxidant ability toward dG (2′-deoxyguanosine (dG) [2]): Glu>Raffi≈Suc | dG (2′-deoxyguanosine (dG) [4]; 1 mg/ml): 0.926 VS | 8OHdG/dG × 10^−3 (2′-deoxyguanosine (dG) [4]; 1 mg/ml): 2.513 × 10^−3 | 8OHdG × 10^−3 (2′-deoxyguanosine (dG) [4]; 1 mg/ml): 2.327 mVs | Relative initial magnification (2′-deoxyguanosine (dG) [4]; 1 mg/ml): 9.55 times | dG (2′-deoxyguanosine (dG) [4]; 10 mg/ml): 1.045 VS | 8OHdG/dG × 10^−3 (2′-deoxyguanosine (dG) [4]; 10 mg/ml): 3.137 × 10^−3 | 8OHdG × 10^−3 (2′-deoxyguanosine (dG) [4]; 10 mg/ml): 3.278 mVs | Relative initial magnification (2′-deoxyguanosine (dG) [4]; 10 mg/ml): 11.93 times

Reference: US7531312B2, “Simplified biological evaluation method of natural and artificial chemicals by using DNA injury index and apparatus therefor” (TAS Project Co., Ltd., priority 2000, dated 2009)
